According to paper PMC4911353, “Pharmacologic Inhibition of Host Phosphodiesterase-4 Improves Isoniazid-Mediated Clearance of Mycobacterium tuberculosis” (Frontiers in Immunology, 2016):

Test system: Mtb-infected mouse lungs
Test: Genome-wide lung transcriptome (microarray, IPA network/GO analysis) of Mtb-infected mice
Type: in vivo

## CCOc1cc([C@@H](CS(C)(=O)=O)N2Cc3cccc(NC(=O)C4CC4)c3C2=O)ccc1OC [CC-11050, N-[2-[(1S)-1-(3-ethoxy-4-methoxyphenyl)-2-(methylsulfonyl)ethyl]-2,3-dihydro-3-oxo-1H-isoindol-4-yl]-(9Cl) cyclopropanecarboxamide]
Lung inflammation network
  TIMP1 expression: 0
  TLR2 expression: 0
  TLR4 expression: 0
  TNFAIP8L2 expression: 0
  TNFRSF1B expression: 0
  TNFRSF4 expression: 0
  TNFRSF9 expression: 0
  TNFRSF25 expression: 0
  TNFSF15 expression: 0
  TOP2A expression: 0
  TRAF3IP2 expression: 0
  TRAF6 expression: 0
  TRPM2 expression: 0
  mir-15 expression: -1.286
  mir-19 expression: 0
  mir-25 expression: 0
  mir-27 expression: 0
  mir-30 expression: 0
  mir-155 expression: 0
  mir-181 expression: 0
TNF-a regulon network
  ABCC1 expression: 0
  ABCC3 expression: 0
  ABCD2 expression: 0
  ABCG2 expression: 0
  ABR expression: 0
  ABTB2 expression: 0
  ACADM expression: 0
  ACE expression: 1.167
  ACOX1 expression: 0
  ACSL1 expression: 0
  ADAM8 expression: 0
  ADAMTS5 expression: 0
  ADIPOQ expression: 0
  ADM expression: 0
  ADRB3 expression: 0
  AEBP1 expression: 0
  AGT expression: 0
  AK2 expression: 0
  ALAD expression: 0
  ALDH3A1 expression: 0
  ALOX5 expression: 0
  ANGPT2 expression: 0
  ANGPTL4 expression: 1.8298
  ANXA11 expression: 0
  AOC3 expression: 0
  APLN expression: 0
  APOBEC3B expression: 0
  APOC2 expression: 0
  AQP1 expression: 0
  AQP7 expression: 0
  ARF4 expression: 1.158
  ASGR1 expression: 0
  ASS1 expression: 0
  AVPR1A expression: 0
  Abcb1b expression: 0
  Aldh1a7 expression: 0
  B2M expression: 0
  B4GALT1 expression: 0
  BCKDHA expression: 0
  BCKDHB expression: 0
  BCL2A1 expression: 0
  BCL2L13 expression: 1.114
  BCL3 expression: 0
  BGN expression: 0
  BHLHE40 expression: 1.386
  BIRC2 expression: 0
  BIRC3 expression: 0
  BIRC5 expression: 0
  BMP4 expression: 0
  BMPR1A expression: 0
  BST2 expression: 0
  BTG1 expression: 0
  BUB1B expression: 0
  C3 expression: 0
  C10orf10 expression: 0
  C11orf82 expression: 0
  C21orf33 expression: 0
  CASP4 expression: 0
  CASP6 expression: 0
  CASP7 expression: 0
  CAT expression: 0
  CCL1 expression: 0
  CCL4 expression: 0
  CCL7 expression: 0
  CCL19 expression: 0
  CCL20 expression: 0
  CCR8 expression: 0
  CD3E expression: 0
  CD5 expression: 0
  CD28 expression: 0
  CD40 expression: 0
  CD69 expression: 0
  CD80 expression: 0
  CD82 expression: 0
  CD83 expression: 0
  CD247 expression: 0
  CD274 expression: 0
  CDC25C expression: 0
  CDH2 expression: 0
  CDH13 expression: 0
  CDKN2C expression: 0
  CDO1 expression: 1.459
  CEBPD expression: 0
  CELF1 expression: 0
  CFB expression: 0
  CFD expression: 0
  CFLAR expression: 0
  CH25H expression: 0
  CHST2 expression: 0
  CHST4 expression: 0
  CIB2 expression: 0
  CIDEC expression: 0
  CLDN11 expression: 0
  CLEC4E expression: 0
  CLEC5A expression: 0
  COL1A2 expression: 0
  COTL1 expression: 0
  CPT1A expression: 1.211
  CPT2 expression: 0
  CRADD expression: 0
  CREM expression: 0
  CSF1R expression: 0
  CSF1 expression: 0
  CST7 expression: 0
  CTNNB1 expression: 0
  CTSB expression: 0
  CTSC expression: 0
  CTSF expression: 0
  CTSZ expression: 0
  CX3CR1 expression: 0
  CXCL2 expression: 0
  CXCL6 expression: 0
  CXCL9 expression: 0
  CXCL10 expression: 0
  CXCL11 expression: 0
  CXCL13 expression: 0
  CXCL16 expression: 0
  CXCR2 expression: 0
  CYBA expression: 0
  CYP1A1 expression: 0
  CYP2E1 expression: 0
  CYP7B1 expression: 0
  CYTH3 expression: 0
  CYTIP expression: 0
  DAG1 expression: 0
  DAXX expression: 0
  DBI expression: 0
  DBT expression: 0
  DCN expression: 0
  DDX58 expression: 0
  DENND4A expression: -1.412
  DHRS3 expression: 0
  DNMT1 expression: 0
  DPP4 expression: 0
  DUSP2 expression: 0
  DUSP5 expression: 0
  DUSP14 expression: 0
  EBI3 expression: 0
  ECH1 expression: 1.206
  EDN1 expression: 0
  EFNA1 expression: 0
  EFNB2 expression: 0
  EGFR expression: 1.258
  EGR2 expression: 0
  EIF2AK2 expression: 0
  EMP1 expression: 1.328
  ENG expression: 0
  ENPP3 expression: 0
